Laboratory results published in PMC12113339, “Miltefosine analogues with comparable antileishmanial activity and significantly reduced macrophage cytotoxicity” (Memórias do Instituto Oswaldo Cruz, 2025).
Where two headings read alike, the source gives them in different places.

Legend:
[1] = test system: plasma membranes of Leishmania amazonensis promastigotes; test: Best fit of eq. 3 to EC50 versus cell concentration (biophysical parameters); type: cell-based; details: for EC50: Leishmania amazonensis, read-out: cw50, concentration in the aqueous phase that inhibits parasite growth by half; for cm50, concentration in the membrane that inhibits parasite growth by half: from KM/W and cw50
From the text: In cell suspension assays, the concentration of lipophilic compounds within the membrane can exceed that in the aqueous medium by over 10,000-fold (Log KM/W > 4). In a well-diluted cell suspension, the quantity of compound associated with the membrane can be negligible due to the relatively small membrane volume; consequently, the compound predominantly resides in the aqueous phase, rendering its EC50 value effectively equivalent to its concentration in that phase, denoted as cw50. However, as cell concentration increases, the enhanced membrane volume results in a significant elevation of the EC50 compared to cw50. The equation that describes the variation of MIL EC50 values in relation to cell concentration in the assay has been derived and is expressed as follows:[10] ^, [11]
EC50=[(Vmc. cc)^-1+ KM/W/ (Vmc . cc)^-1+1)] cw50 (3)
Where Vmc is the estimated cell membrane volume for an L. amazonensis promastigote, previously estimated as 8.17 x 10^-13 mL,[11] and cc is the number of cells per mL. The parameters KM/W and cw50 are covariant in eq. 3, and their values can be determined as best-fit parameters of eq. For very dilute samples, the plasma membrane content is small, and the EC50 and cw50 values are practically the same; assuming in eq. 3 that (Vmc . cc)^-1 >> KM/W, the EC50 = ~cw50. For high concentrations of cells, a remarkable amount of the compound goes to the membrane, and the EC50 value is much higher than the cw50 value. The cm50 value can also be determined from the […] relationship.

[2] = test system: GFP-labelled L. amazonensis amastigotes within J774.A1 macrophages; test: microbe, parasite or virus in culture; type: cell-based, Leishmania amazonensis; details: for Minimum concentration required to significantly reduce the percentage of macrophages infected with GFP-expressing amastigotes / Minimum concentration required to significantly decrease the mean fluorescence intensity: 24 h of treatment; for Minimum concentration required to significantly reduce the percentage of macrophages infected with GFP-expressing amastigotes: % GFP+ cells; for Minimum concentration required to significantly decrease the mean fluorescence intensity: MFI; for SI (CC50/EC50), amastigotes: CC50 J774A.1 / EC50 amastigotes; for EC50: Leishmania amazonensis, intracellular amastigotes in J774.A1, 24 h treatment, % infected cells, read-out: EC50 ± SD, amastigotes
Method: J774.A1 macrophage infection - GFP-labelled L. amazonensis was cultivated in Grace’s insect medium supplemented as described above. The GFP-labelled parasites were selected using 30 μg/mL hygromycin B.[21] J774.A1 macrophages were cultured in RPMI-1640 medium supplemented with 10% FCS, 2 mM L-glutamine, 11 mM sodium bicarbonate, 100 U/mL penicillin, and 100 µg/mL streptomycin. A sample with 4 x 10^6 cells/mL was infected with GFP-L. amazonensis (five parasites/cell) from six-day cultures for 24 h. Following infection, the cells were washed with 1x phosphate-buffered saline (PBS) to remove non-internalised parasites and cultured for an additional 24 h in the presence of MIL or its analogues at different concentrations (7.5-240 μM).
After cooling to ~4 °C, samples were collected by mechanical harvesting of adherent cells, washed twice with 1x PBS, and fixed with 1% paraformaldehyde for flow cytometry analysis using a BD Accuri™ C6 Flow Cytometry instrument (BD Bioscience, San Jose, CA, USA). Macrophages were selected by forward versus side scatter (FSC vs SSC). The data were analysed using FCS Express software (De Novo Software^TM, Glendale, CA, USA). The percentage of cells expressing GFP^+ (% infected cells) and mean fluorescence intensity (estimated amount of internalised parasites) were evaluated. The mean EC50 values were determined based on the best-fit sigmoidal curve plotted for infection percentage versus compound concentration, considering the maximum and minimum percentages of infected cells.

[3] = Macrophage cytotoxicity (MTT cell viability); type: cell-based, murine; details: mouse, J774.A1 macrophages, J774A.1 cells
Method: (§1) Cells - Leishmania (L.) amazonensis (MHOM/BR/75/Josefa) and green fluorescent protein (GFP)-labelled L. amazonensis (IFLA/BR/67/PH8) reference strains in their promastigote form were grown in 24-well microtiter plates containing 2 mL of Grace’s insect medium supplemented with 20% heat-inactivated FCS, 2 mM L-glutamine, 100 U/mL penicillin, and 100 µg/mL streptomycin, as previously described.[11] ^, [12] The promastigotes were collected for the experiments when the highest proportion of infective metacyclics was reached (6th day of culture). The J774.A1 murine macrophage cell line was obtained from the cell bank of Rio de Janeiro (NCE/UFRJ). Macrophages were cultured in RPMI-1640 medium supplemented with 10% FCS, 2 mM L-glutamine, 100 U/mL penicillin, and 100 μg/mL streptomycin at 36.5 °C in a humidified incubator containing 5% CO2.
(§2) In vitro assays of antileishmanial activity and macrophage cytotoxicity - Parasites at different cell concentrations (5 x 10^6, 1 x 10^7, 1 x 10^8, and 1 x 10^9 cells/mL), or J774.A1 macrophages at 1 x 10^6 cells/mL, were treated with increasing concentrations of MIL or its analogues, TC387, TC388, and TC437 (Fig. 1), which were initially diluted in an ethanol/DMSO mixture (1:1, v/v) at 25 or 250 mg/mL and then diluted in culture medium supplemented with 10% FCS. Promastigote or macrophage samples (100 µL) containing six different concentrations of the compounds (5-160 μM for promastigotes and 200-6,400 μM for macrophages) were prepared in 96-well microtiter plates and incubated for 24 h at 26 °C for promastigotes or 36.5 °C for macrophages. Cell viability was quantified by measuring the reduction of MTT to formazan by mitochondrial reductases. Formazan absorbance was read on the enzyme-linked immunosorbent assay (ELISA) reader at 550 nm, and the half maximal effective concentration (EC50) or half-maximal cytotoxic concentration (CC50) values were determined based on the best fit of the sigmoidal curve on the absorbance data versus the compound concentrations.

[4] = test system: amastigotes internalised within J774.A1 macrophages; design: method as in Scariot et al. 13; details: ref Scariot et al. 13; cited from earlier work
[5] = test system: Leishmania amazonensis promastigotes; test: microbe, parasite or virus in culture; type: cell-based; details: for SI (CC50/EC50), promastigotes: CC50 J774A.1 / EC50 promastigotes; for EC50: Leishmania amazonensis
Method: as §1, §2

[6] = test system: L. amazonensis promastigotes; design: method as in Scariot et al. 13; details: ref Scariot et al. 13; cited from earlier work
[7] = Haemolytic potential in PBS; type: cell-based; details: human, washed erythrocytes in PBS, haematocrit 2%, 2 h at 36.5 °C, read-out: Erythrocytes in PBS - % haemolysis; for hemolysis at 2 h, 6.6 mM: 6.6 mM (22 times 300 µM)
Method: To assess the haemolytic potential in PBS, blood was initially diluted threefold in PBS and centrifuged at 800 × g for 10 min at 4 °C. Plasma and white blood cells were removed, and the remaining cells were resuspended in PBS. Erythrocytes were washed twice in PBS, discarding the supernatant after centrifugation. Erythrocytes were then added to a micellar suspension of the compounds at various concentrations in PBS (0.3-10 mM), achieving a final haematocrit of 2%. Samples were incubated for 2 h at 36.5 ± 1 °C, and haemolysis percentages and HC50 values were determined as described above.

[8] = Haemolytic potential in whole blood; type: cell-based, human; details: human, whole blood reconstituted from plasma and blood cells, 24 h at 7 °C, read-out: Whole blood - % haemolysis
Method: (§3) Haemolytic potential in whole blood and PBS - Blood was collected from a university blood bank, adhering to an approved protocol by the Ethics Committee for Human and Animal Medical Research at Hospital das Clínicas, Universidade Federal de Goiás (CAAE: 81316417.1.0000.5078). To evaluate the haemolytic potential of MIL and its analogues (TC387, TC388, and TC437) in whole blood, plasma was separated by centrifugation at 1800 × g for 10 min at 4 °C. Next, 58 µL of plasma samples containing different concentrations of the compounds were prepared (in this case the compounds were diluted directly in blood plasma to final concentrations in the range of 2.5-12.5 mM), and 42 µL of the blood cells (100%) were added to each sample to reconstitute the whole blood. Samples were incubated for 24 h at 7 ± 1 °C, and several agitations were made in this period. After incubation, 1.4 mL PBS was added to each sample, and the tubes were centrifuged (3500 x g for 10 min). The percentage of haemolysis was determined based on the absorbance of haemoglobin in the supernatant at 540 nm relative to the sample without treatment (control). The compound concentration required for 50% haemolysis (HC50) was calculated by fitting the percentage of haemolysis versus compound concentration data to a sigmoidal curve.

[9] = test system: whole blood; test: Haemolytic potential in whole blood; type: cell-based, human; details: 7.5 mM, 24 h at 7 °C
Method: as §3

[10] = best-fit parameter of eq. 3, equivalent to EC50 for diluted samples
[11] = 24 h, read-out: EC50 ± SD, promastigotes, 24 h at 26 °C, MTT

Q: What does the source list for CCCCCCCCCCCCCCCCOP(=O)([O-])OCC[N+](C)(C)C [MIL, hexadecylphosphocholine, reference compound]?
A: EC50 [1, 10]: 9.4 ± 1.2 µM; cm50, concentration in the membrane that inhibits parasite growth by half [1]: 0.81 ± 0.07 (B) M; Minimum concentration required to significantly reduce the percentage of macrophages infected with GFP-expressing amastigotes [2]: 15 µM; Minimum concentration required to significantly decrease the mean fluorescence intensity [2]: 15 µM; SI (CC50/EC50), amastigotes [2]: 5; EC50 [2]: 17 ± 3 µM; CC50 at 24 h [3]: 77 ± 23 µM; IC50 [4]: 2 µM; SI (CC50/EC50), promastigotes [5]: around 6; SI (CC50/EC50), promastigotes ([5]; listed as Miltefosine): 6; EC50 [5, 11]: 13 ± 3 µM; EC50 ([5]; read-out: EC50, promastigotes, cell concentration 1 x 10^7 parasites/mL): ~13 µM; EC50 ([5]; read-out: EC50, promastigotes, cell concentration 1 x 10^9 parasites/mL): ~660 µM; IC50 [6]: 21 µM

Q: For COC(=O)c1c(CCCCCCCCOP(=O)([O-])OCC[N+](C)(C)C)cccc1OC [TC388], which hemolysis at 2 h, 3.3 mM [7] is on record?
A: 8.5%

Q: And the hemolysis at 2 h, 10 mM [7]?
A: 25.3%

Q: And the EC50 [1, 10]?
A: 38.9 ± 3.8 µM

Q: What about the “cm50, concentration in the membrane that inhibits parasite growth by half” value [1] of the same molecule?
A: 0.50 ± 0.13 (A) M

Q: And the hemolysis at 24 h, 10 mM [8]?
A: 14.5%

Q: And the hemolysis at 24 h, 12.5 mM ([8]; 12.5 mM)?
A: 24.2 ± 6.4%

Q: What about the “Minimum concentration required to significantly reduce the percentage of macrophages infected with GFP-expressing amastigotes” value [2] of the same molecule?
A: 7.5 µM

Q: And the “Minimum concentration required to significantly decrease the mean fluorescence intensity” value [2]?
A: 7.5 µM

Q: What about the EC50 [2] of the same molecule?
A: 10 ± 2 µM

Q: What about the CC50 at 24 h [3] of the same molecule?
A: 1630 ± 404 µM

Q: What about the “SI (CC50/EC50), promastigotes” value [5] of the same molecule?
A: 42

Q: And the EC50 [5, 11]?
A: 39 ± 11 µM

Q: With COc1cccc(CCCCCCCCOP(=O)([O-])OCC[N+](C)(C)C)c1 [TC387] as the molecule, how does the hemolysis at 2 h, 3.3 mM [7] read?
A: 26.2%

Q: What about the hemolysis at 2 h, 6.6 mM [7] of the same molecule?
A: < 50%

Q: What about the hemolysis at 2 h, 10 mM [7] of the same molecule?
A: 60.4%

Q: And the EC50 [1, 10]?
A: 27.2 ± 2.9 µM

Q: And the “cm50, concentration in the membrane that inhibits parasite growth by half” value [1]?
A: 0.53 ± 0.09 (A) M

Q: And the hemolysis at 24 h, 7.5 mM [8]?
A: 20.5%

Q: And the hemolysis at 24 h, 10 mM [8]?
A: 75.3%

Q: What about the “Whole blood - % haemolysis” value [9] of the same molecule?
A: 22.5 ± 3.7%

Q: And the “Minimum concentration required to significantly reduce the percentage of macrophages infected with GFP-expressing amastigotes” value [2]?
A: 7.5 µM

Q: What about the “Minimum concentration required to significantly decrease the mean fluorescence intensity” value [2] of the same molecule?
A: 7.5 µM

Q: What about the “SI (CC50/EC50), amastigotes” value [2] of the same molecule?
A: 80

Q: What about the EC50 [2] of the same molecule?
A: 12 ± 3 µM

Q: And the CC50 at 24 h [3]?
A: 956 ± 277 µM

Q: What about the “SI (CC50/EC50), promastigotes” value [5] of the same molecule?
A: 34

Q: And the EC50 [5, 11]?
A: 27 ± 9 µM

Q: With COc1cc(CCCCCCCCOP(=O)([O-])OCC[N+](C)(C)C)cc(OC)c1 [TC437] as the molecule, how does the hemolysis at 2 h, 3.3 mM [7] read?
A: 29.8%

Q: And the hemolysis at 2 h, 6.6 mM [7]?
A: < 50%

Q: And the hemolysis at 2 h, 10 mM [7]?
A: 65.4%

Q: And the EC50 [1]?
A: 22.8 ± 3.7 µM

Q: What about the “cm50, concentration in the membrane that inhibits parasite growth by half” value [1] of the same molecule?
A: 0.56 ± 0.11 (A) M

Q: What about the hemolysis at 24 h, 7.5 mM [8] of the same molecule?
A: 40.6 ± 7.4%

Q: What about the hemolysis at 24 h, 10 mM [8] of the same molecule?
A: 92.5%

Q: What about the “Minimum concentration required to significantly reduce the percentage of macrophages infected with GFP-expressing amastigotes” value [2] of the same molecule?
A: 15 µM

Q: What about the “Minimum concentration required to significantly decrease the mean fluorescence intensity” value [2] of the same molecule?
A: 7.5 µM

Q: And the “SI (CC50/EC50), amastigotes” value [2]?
A: 43

Q: What about the EC50 [2] of the same molecule?
A: 16 ± 3 µM

Q: And the CC50 at 24 h [3]?
A: 692 ± 212 µM

Q: What about the “SI (CC50/EC50), promastigotes” value [5] of the same molecule?
A: 29

Q: What about the EC50 [5, 11] of the same molecule?
A: 24 ± 7 µM
